Test results taken from ChEMBL document CHEMBL5338790, “Discovery of Subcellular-Targeted Aza-BODIPY Photosensitizers for Efficient Photodynamic Antitumor Therapy” (J Med Chem, 2023).
The source made the active and inactive calls. The rule behind the calls is not given here.

What was measured:
[1] = Toxicity in Balb/C nu/nu mouse xenografted with human HeLa cells assessed as change in heart histology at 2.5 umol/kg, iv with photo-irradiation at 30 J/cm2 after 1 hr of compound administration measured after 24 days by H and E staining based analysis; format: organism-based; details: in vivo, 576 h, dose 2.5 µmol/kg, time 24 day
[2] = Cytotoxicity against human HeLa cells assessed as inhibition of cell viability under dark condition incubated for 27 hrs by CCK8 assay; format: toxicity, cell-based
HUVEC = experiment: Photodynamic cytotoxicity against HUVEC cells assessed as inhibition of cell viability incubated for 3 hrs followed by photo-irradiation at 54 J/cm2 measured after 24 hrs by CCK8 assay; format: functional, cell-based; details: Homo sapiens, light or radiation study
[3] = Drug uptake in human HeLa cells at 5 uM by confocal scanning microscopy; format: ADME, cell-based; details: 3 h, TDE = time-dependent effect
[4] = Drug localization in mitochondria of human HeLa cells at 5 uM incubated for 30 mins by MitoTracker Green FM dye based confocal scanning microscopic analysis; format: ADME; details: 0.5 h
[5] = Drug localization in lysosome of human HeLa cells at 5 uM incubated for 30 mins by Lyso-tracker Green DND-26 dye based confocal scanning microscopic analysis; format: ADME, subcellular; details: 0.5 h
HeLa [6] = experiment: Induction of ROS production in human HeLa cells upto 200 nM preincubated for 2 hrs followed by H2DCFDA probe exposure for 30 mins and subsequent removal of probe with photo-irradiation at 16 J/cm2 by confocal scanning microscopic analysis; format: functional, cell-based; details: time 2.5 hrs
HeLa [7] = experiment: Induction of ROS production in human HeLa cells upto 200 nM preincubated for 2 hrs followed by H2DCFDA probe exposure for 30 mins and subsequent removal of probe by confocal scanning microscopic analysis; format: functional, cell-based; details: time 2.5 hrs
HeLa [8] = experiment: Induction of apoptosis in human HeLa cells assessed as viable cells at 100 nM incubated for 3 hrs by Annexin V-FITC/PI staining based flow cytometry relative to control; format: toxicity, cell-based; details: read-out: Activity
HeLa [9] = experiment: Induction of apoptosis in human HeLa cells assessed as late apoptotic cells at 100 nM incubated for 3 hrs by Annexin V-FITC/PI staining based flow cytometry relative to control; format: toxicity, cell-based; details: 0.1 µM
HeLa [10] = experiment: Induction of apoptosis in human HeLa cells assessed as necrotic cells at 100 nM incubated for 3 hrs by Annexin V-FITC/PI staining based flow cytometry relative to control; format: toxicity, cell-based; details: 0.1 µM
HeLa [11] = experiment: Induction of apoptosis in human HeLa cells assessed as early apoptotic cells at 12.5 nM incubated for 3 hrs with photo-irradiation at 54 J/cm2 by Annexin V-FITC/PI staining based flow cytometry relative to control; format: functional
HeLa [12] = experiment: Induction of apoptosis in human HeLa cells assessed as late apoptotic cells at 12.5 nM incubated for 3 hrs with photo-irradiation at 54 J/cm2 by Annexin V-FITC/PI staining based flow cytometry relative to control; format: functional
HeLa [13] = experiment: Induction of apoptosis in human HeLa cells assessed as necrotic cells at 25 nM incubated for 3 hrs with photo-irradiation at 54 J/cm2 by Annexin V-FITC/PI staining based flow cytometry relative to control; format: functional
HeLa [14] = experiment: Induction of apoptosis in human HeLa cells assessed as early apoptotic cells at 50 nM incubated for 3 hrs with photo-irradiation at 54 J/cm2 by Annexin V-FITC/PI staining based flow cytometry relative to control; format: functional
HeLa [15] = experiment: Induction of apoptosis in human HeLa cells assessed as late apoptotic cells at 50 nM incubated for 3 hrs with photo-irradiation at 54 J/cm2 by Annexin V-FITC/PI staining based flow cytometry relative to control; format: functional
HeLa [16] = experiment: Induction of apoptosis in human HeLa cells assessed as necrotic cells at 50 nM incubated for 3 hrs with photo-irradiation at 54 J/cm2 by Annexin V-FITC/PI staining based flow cytometry relative to control; format: functional
HeLa [17] = experiment: Induction of apoptosis in human HeLa cells assessed as viable cells at 100 nM incubated for 3 hrs with photo-irradiation at 54 J/cm2 by Annexin V-FITC/PI staining based flow cytometry relative to control; format: functional; details: light or radiation study, read-out: Activity
HeLa [18] = experiment: Induction of apoptosis in human HeLa cells assessed as increase in percentage of apoptosis/necrosis at 25 nM incubated for 3 hrs with photo-irradiation at 54 J/cm2 by Annexin V-FITC/PI staining based flow cytometry relative to control; format: functional
HeLa [19] = experiment: Induction of apoptosis in human HeLa cells assessed as increase in percentage of apoptosis/necrosis at 50 nM incubated for 3 hrs with photo-irradiation at 54 J/cm2 by Annexin V-FITC/PI staining based flow cytometry relative to control; format: functional
HeLa [20] = experiment: Induction of apoptosis in human HeLa cells assessed as increase in percentage of apoptosis/necrosis at 100 nM incubated for 3 hrs with photo-irradiation at 54 J/cm2 by Annexin V-FITC/PI staining based flow cytometry relative to control; format: functional
HeLa [21] = experiment: Disruption of lysosomes in human HeLa cells at 100 nM incubated for 3 hrs by AO staining based confocal scanning microscopy; format: functional, cell-based
HeLa [22] = experiment: Disruption of lysosomes in human HeLa cells at 50 to 100 nM incubated for 3 hrs with photo-irradiation at 16 J/cm2 by AO staining based confocal scanning microscopy; format: functional, cell-based; details: dose 50-100 nM
[23] = Drug distribution in heart of Balb/C nu/nu mouse xenografted with human HeLa cells at 2.5 umol/kg, iv measured for 1 hr by IVIS imaging analysis; format: ADME, organism-based; details: in vivo, dose 2.5 µmol/kg
[24] = Drug distribution in spleen of Balb/C nu/nu mouse xenografted with human HeLa cells at 2.5 umol/kg, iv measured for 1 hr by IVIS imaging analysis; format: ADME, organism-based; details: in vivo, dose 2.5 µmol/kg
[25] = Drug distribution in kidneys of Balb/C nu/nu mouse xenografted with human HeLa cells at 2.5 umol/kg, iv measured for 1 hr by IVIS imaging analysis; format: ADME, organism-based, Kidney; details: in vivo, dose 2.5 µmol/kg
[26] = Drug distribution in liver of Balb/C nu/nu mouse xenografted with human HeLa cells at 2.5 umol/kg, iv measured for 24 hr by IVIS imaging analysis; format: ADME, organism-based; details: in vivo, dose 2.5 µmol/kg
[27] = Drug distribution in spleen of Balb/C nu/nu mouse xenografted with human HeLa cells at 2.5 umol/kg, iv measured for 24 hr by IVIS imaging analysis; format: ADME, organism-based; details: in vivo, dose 2.5 µmol/kg
[28] = Toxicity in Balb/C nu/nu mouse xenografted with human HeLa cells assessed as increase in body weight at 2.5 umol/kg, iv with photo-irradiation at 30 J/cm2 after 1 hr of compound administration measured for 24 days; format: organism-based; details: in vivo, 576 h, dose 2.5 µmol/kg, time 24 day
[29] = Toxicity in Balb/C nu/nu mouse xenografted with human HeLa cells assessed as change in spleen histology at 2.5 umol/kg, iv with photo-irradiation at 30 J/cm2 after 1 hr of compound administration measured after 24 days by H and E staining based analysis; format: organism-based; details: in vivo, 576 h, dose 2.5 µmol/kg, time 24 day
HeLa [30] = experiment: Antitumor activity against human HeLa cells xenografted in Balb/C nu/nu mouse assessed as reduction in tumor histology at 2.5 umol/kg, iv with photo-irradiation at 30 J/cm2 after 1 hr of compound administration measured after 24 days by H and E staining based analysis; format: functional, organism-based; details: dose 2.5 µmol/kg, time 24.0 day

## COc1ccc2c(c1)CCc1c(-c3ccccc3)c3n(c1-2)[B-](F)(F)[N+]1=C(c2ccc(OCC(=O)NCCCN4CCOCC4)cc2)C(I)=C(c2ccccc2)C1=N3
[1]
  Activity: Non-Toxic
[2]
  IC50 at 27 h: > 50000 nM
HUVEC
  IC50: 11.9 nM
[3]
  Drug uptake: Tde
[4]
  Drug uptake: Not Active
[5]
  Drug uptake: Active
HeLa [6]
  Activity: Active
HeLa [7]
  Activity: inactive
HeLa [8]
  viability at 0.1 µM: 91.7%
HeLa [9]
  Activity: 5.79%
HeLa [10]
  Activity: 1.04%
HeLa [11]
  Activity: 5.28%
HeLa [12]
  Activity: 5.57%
HeLa [13]
  Activity: 3.67%
HeLa [14]
  Activity: 58.93%
HeLa [15]
  Activity: 13.58%
HeLa [16]
  Activity: 2.08%
HeLa [17]
  viability at 0.1 µM: 9.73%
HeLa [18]
  Activity: 13.1%
HeLa [19]
  Activity: 41.8%
HeLa [20]
  Activity: 64.6%
HeLa [21]
  Activity: inactive
HeLa [22]
  Activity: Active
[23]
  Drug uptake: Active
[24]
  Drug uptake: Active
[25]
  Drug uptake: Active
[26]
  Drug uptake: Not Active
[27]
  Drug uptake: Not Active
[28]
  Activity: Non-Toxic
[29]
  Activity: Non-Toxic
HeLa [30]
  Activity: Active
